According to patent USRE39591E1, “6-O-substituted ketolides having antibacterial activity” (Abbott Laboratories, priority 1996, dated 2007):
In brackets after ≈: the same amount, converted by molar mass.

Test system: up to 32 different microorganisms
Test: in vitro antibacterial activity (MIC), agar dilution on Brain Heart Infusion (BHI) agar with Steers replicator
Assay type: cell-based
Settings: unit assumed
How it was run: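 Agar dilution, 12 plates/compound; inoc 1:100 (1:10 Micrococcus, Streptococcus); 35°-37° C, 20–24 h. Erythromycin A reference plate plus drug-free growth controls at start and end. Endpoint = no growth/slight haze/sparse colonies.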

[1] = Candida albicans CCH 442 (code TT)
[2] = Enterococcus faecism ATCC 8043 (code II)
[3] = Escherichia coli DC-2 (code SS)
[4] = Escherichia coli JUHL (code QQ)
[5] = Micrococcus luteus ATCC 4698 (code PP)
[6] = Micrococcus luteus ATCC 9341 (code OO)
[7] = Mycobacterium smegmatis ATCC 114 (code UU)
[8] = Nocardia Asteroides ATCC9970 (code VV)
[9] = Staphylococcus aureus 1775 (code GG)
[10] = Staphylococcus aureus A-5278 (code CC)
[11] = Staphylococcus aureus ATCC 6538P (code AA)
[12] = Staphylococcus aureus CMX 553 (code FF)
[13] = Staphylococcus aureus CMX 642A (code DD)
[14] = Staphylococcus aureus NCTC10649M (code EE)
[15] = Staphylococcus epidermidis 3519 (code HH)
[16] = Streptococcus agalactiae CMX 508 (code KK)
[17] = Streptococcus bovis A-5169 (code JJ)
[18] = Streptococcus pyogenes 930 (code MM)
[19] = Streptococcus pyogenes EES61 (code LL)
[20] = Streptococcus pyogenes PIU 2548 (code NN)

## C=CCO[C@@]1(C)C[C@@H](C)C(=O)[C@H](C)[C@H]2N(C)C(=O)O[C@]2(C)[C@@H](CC)OC(=O)[C@H](C)C(=O)[C@H](C)[C@H]1O[C@@H]1O[C@H](C)C[C@H](N(C)C)[C@H]1O [Example 179, Compound of Formula (IX): L is CO, T is N(CH3), R is —CH2CH═CH2]
[1]
  MIC: > 100 µg/mL
[2]
  MIC: 1.56 µg/mL
[3]
  MIC: > 100 µg/mL
[4]
  MIC: > 100 µg/mL
Escherichia coli SS (code RR)
  MIC: 6.2 µg/mL
Haemophilis influenzae DILL AMP R (code WW)
  MIC: > 128 µg/mL
[5]
  MIC: 3.1 µg/mL
[6]
  MIC: 1.56 µg/mL
[7]
  MIC: 12.5 µg/mL
[8]
  MIC: 3.1 µg/mL
[9]
  MIC: > 100 µg/mL
Staphylococcus aureus A5177 (code BB)
  MIC: 6.2 µg/mL
[10]
  MIC: > 100 µg/mL
[11]
  MIC: 6.2 µg/mL
[12]
  MIC: 6.2 µg/mL
[13]
  MIC: 6.2 µg/mL
[14]
  MIC: 6.2 µg/mL
[15]
  MIC: 12.5 µg/mL
Streptococcus Pneumonia 5649 (code ZZA)
  MIC: 0.5 µg/mL
Streptococcus Pneumonia 5979 (code ZZ)
  MIC: > 128 µg/mL
Streptococcus Pneumonia ATCC6303 (code XX)
  MIC: 0.5 µg/mL
Streptococcus Pneumonia GYR 1171 (code YY)
  MIC: 0.5 µg/mL
[16]
  MIC: 0.39 µg/mL
[17]
  MIC: 0.39 µg/mL
[18]
  MIC: > 100 µg/mL
[19]
  MIC: 0.39 µg/mL
[20]
  MIC: 0.78 µg/mL

## CCC1OC(=O)C(C)C(=O)C(C)C(OC2OC(C)CC(N(C)C)C2O)C(C)(OCC=Cc2ccc3cc(OCCBr)ccc3c2)CC(C)C(=O)C(C)C2NC(=O)OC12C (stereo not drawn) [Example 288, Compound of Formula (IX): L is CO, T is NH2, R is —CH2CH═CH-(6-(2-bromoethoxy)-2-naphthyl)]
Organism code AA
  MIC: 0.1 µg/mL
Organism code BB
  MIC: 0.2 µg/mL
Organism code CC
  MIC: > 100 µg/mL
Organism code DD
  MIC: 0.39 µg/mL
Organism code EE
  MIC: 0.39 µg/mL
Organism code FF
  MIC: 0.39 µg/mL
Organism code GG
  MIC: 100 µg/mL
Organism code HH
  MIC: 0.39 µg/mL
Organism code II
  MIC: 0.39 µg/mL
Organism code JJ
  MIC: 0.01 µg/mL
Organism code KK
  MIC: 0.02 µg/mL
Organism code LL
  MIC: 0.1 µg/mL
Organism code MM
  MIC: 12.5 µg/mL
Organism code NN
  MIC: 0.39 µg/mL
Organism code OO
  MIC: 0.02 µg/mL
Organism code PP
  MIC: 0.39 µg/mL
Organism code QQ
  MIC: > 100 µg/mL
Organism code RR
  MIC: 3.1 µg/mL
Organism code SS
  MIC: > 100 µg/mL
Organism code TT
  MIC: > 100 µg/mL
Organism code UU
  MIC: 0.39 µg/mL
Organism code VV
  MIC: 0.39 µg/mL
Organism code WW
  MIC: 8 µg/mL
Organism code XX
  MIC: 0.125 µg/mL
Organism code YY
  MIC: 0.125 µg/mL
Organism code ZZ
  MIC: 16 µg/mL
Organism code ZZA
  MIC: 1 µg/mL

## CCC1OC(=O)C(C)C(=O)C(C)C(OC2OC(C)CC(N(C)C)C2O)C(C)(OCC=Cc2cnc3ccc([N+](=O)[O-])cc3c2)CC(C)C(=O)C(C)C2NC(=O)OC12C (stereo not drawn) [Example 195, R is —CH2CH═CH-(6-nitroquinolyl)]
[1]
  MIC: > 100 µg/mL
[2]
  MIC: 0.05 µg/mL (≈ 0.0617 µM)
[3]
  MIC: 50 µg/mL (≈ 61.7 µM)
[4]
  MIC: 50 µg/mL (≈ 61.7 µM)
Escherichia coli SS (code RR)
  MIC: 0.2 µg/mL (≈ 0.247 µM)
[5]
  MIC: 0.1 µg/mL (≈ 0.123 µM)
[6]
  MIC: 0.01 µg/mL (≈ 0.0123 µM)
[7]
  MIC: 0.39 µg/mL (≈ 0.481 µM)
[8]
  MIC: 0.05 µg/mL (≈ 0.0617 µM)
[9]
  MIC: > 100 µg/mL
[10]
  MIC: > 100 µg/mL
[11]
  MIC: 0.05 µg/mL (≈ 0.0617 µM)
[12]
  MIC: 0.05 µg/mL (≈ 0.0617 µM)
[13]
  MIC: 0.05 µg/mL (≈ 0.0617 µM)
[14]
  MIC: 0.05 µg/mL (≈ 0.0617 µM)
[15]
  MIC: 0.05 µg/mL (≈ 0.0617 µM)
[16]
  MIC: 0.05 µg/mL (≈ 0.0617 µM)
[17]
  MIC: 0.01 µg/mL (≈ 0.0123 µM)
[18]
  MIC: 1.56 µg/mL (≈ 1.92 µM)
[19]
  MIC: 0.02 µg/mL (≈ 0.0247 µM)
[20]
  MIC: 0.1 µg/mL (≈ 0.123 µM)

## CCC1OC(=O)C(C)C(=O)C(C)C(OC2OC(C)CC(N(C)C)C2O)C(C)(OCC=Cc2cccc3ncccc23)CC(C)C(=O)C(C)C2NC(=O)OC12C (stereo not drawn) [Example 196, R is —CH2CH═CH-(5-quinolyl)]
[1]
  MIC: > 100 µg/mL
[2]
  MIC: 0.05 µg/mL (≈ 0.0653 µM)
[3]
  MIC: > 100 µg/mL
[4]
  MIC: > 100 µg/mL
Escherichia coli SS (code RR)
  MIC: 0.39 µg/mL (≈ 0.509 µM)
[5]
  MIC: 0.1 µg/mL (≈ 0.131 µM)
[6]
  MIC: 0.01 µg/mL (≈ 0.0131 µM)
[7]
  MIC: 0.2 µg/mL (≈ 0.261 µM)
[8]
  MIC: 0.1 µg/mL (≈ 0.131 µM)
[9]
  MIC: > 100 µg/mL
[10]
  MIC: > 100 µg/mL
[11]
  MIC: 0.1 µg/mL (≈ 0.131 µM)
[12]
  MIC: 0.1 µg/mL (≈ 0.131 µM)
[13]
  MIC: 0.1 µg/mL (≈ 0.131 µM)
[14]
  MIC: 0.1 µg/mL (≈ 0.131 µM)
[15]
  MIC: 0.2 µg/mL (≈ 0.261 µM)
[16]
  MIC: ≤ 0.005 µg/mL
[17]
  MIC: ≤ 0.005 µg/mL
[18]
  MIC: > 100 µg/mL
[19]
  MIC: ≤ 0.005 µg/mL
[20]
  MIC: 0.2 µg/mL (≈ 0.261 µM)
